Measured values published in paper PMC4997609, “Wedelolactone enhances osteoblastogenesis by regulating Wnt/β-catenin signaling pathway but suppresses osteoclastogenesis by NF-κB/c-fos/NFATc1 pathway” (Scientific Reports, 2016).

Biological target: T1, GSK3β (Homo sapiens, UniProt P49841)
T1 construct: gene GSK3B
Experiment: ADP-Glo kinase assay with GSK3β, GSK3β substrate and […] ATP
Assay type: biochemical

T1 sequence (P49841 whole entry): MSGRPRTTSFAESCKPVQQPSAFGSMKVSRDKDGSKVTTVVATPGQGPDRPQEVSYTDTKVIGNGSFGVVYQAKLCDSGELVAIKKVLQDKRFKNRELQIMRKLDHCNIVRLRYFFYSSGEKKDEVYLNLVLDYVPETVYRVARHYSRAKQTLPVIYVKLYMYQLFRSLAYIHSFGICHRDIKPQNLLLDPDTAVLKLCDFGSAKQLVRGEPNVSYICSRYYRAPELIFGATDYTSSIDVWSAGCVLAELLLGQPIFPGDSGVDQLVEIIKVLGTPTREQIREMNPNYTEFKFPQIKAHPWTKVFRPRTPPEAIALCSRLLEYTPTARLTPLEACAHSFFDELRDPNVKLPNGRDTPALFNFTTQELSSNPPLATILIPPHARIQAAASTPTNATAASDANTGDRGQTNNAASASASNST

- IC50: 21.7 µM
Compound: COc1cc(O)c2c(c1)oc(=O)c1c3cc(O)c(O)cc3oc21 [wedelolactone]
